The results in this text go back to patent US9644181B2, “Cell preparation containing myocardium-committed cell” (RIKEN, priority 2012, dated 2017).

SMILES strings stand for the structures.

The test system of assay [1] is adipose-tissue-derived multi-lineage/multi-potent progenitor cells (ADMPC). Put plainly: Comparison of the induction of the expression of various markers by spermine and DMSO. It counts as cell-based, human. How it is done:
(§1) Adipose tissues were provided by subjects from whom informed consent had been obtained by suction surgery from subcutaneous tissues. Neither steroid agent nor TZD had been administered to any of the subjects. Adipose tissues were cut into small pieces. Next, digestion was performed for 1 hour with shaking in 0.067% collagenase (Roche applied science)-containing Hanks' Balanced Salt Solution (HBSS) in a water bath at 37° C. The digested products were filtered through a Cell Strainer (BD Bioscience) and then centrifuged at 800 g for 10 minutes. Erythrocytes were removed by a specific gravity method using Lymphoprep (d=1.077) (Nycomed). The thus obtained Stromal Vascular Fraction (cells) was seeded into DMEM containing 10% fetal calf serum (Life Technologies). Cells were cultured for 24 hours so that they would adhere. After washing, the resultant was treated with EDTA, and ADMPC were thereby obtained. Next, ADMPC were seeded on a human-fibronectin-coated dish in medium I: 60% DMEM-low glucose, 40% MCDB201, […], 1 nM dexamethasone, 100 μM ascorbic acid, and 5% FBS at a density of 10,000 cells/cm^2, passaged 3 to 5 times, and then used for experiments.
(§2) Total RNA was isolated from the thus obtained cells using an RNeasy mini kit (Qiagen) according to protocols recommended by the manufacturer. Total RNA (500 ng) was subjected to DNase treatment, and then cDNA was synthesized using Superscript III reverse transcriptase RNase H (-) (Life Technologies).
(§3) Subsequently, TaqMan Universal PCR Master Mix (Applied Biosystems) (10 μl) and TaqMan Gene Expression Assays (Applied Biosystems) (1 μl) were added to the thus prepared cDNA (9 μl). Real-time PCR was performed using an Applied Biosystems 7900 Fast Real-Time PCR system under the following conditions: denaturation at 95° C. for 10 minutes and 40 cycles of 95° C. for 15 seconds and 60° C. for 1 minute. TaqMan probes and assay IDs (available from GenBank/NCBI (U.S.A.)) used for Islet-1, Nkx2.5, GATA-4, α-CA, cardiac troponin I, MLC, MHC, and GAPDH are listed in Table 1 below.
ADMPC passaged 4 times by plate culture were detached and washed with TrypLE Select (Life Technologies; the same applies hereafter) and were suspended at a concentration of 1×10^5/mL in Knockout-DMEM (Life Technologies; the same applies hereafter) supplemented with 0, 5, 25, 50, 100, 200, or 500 μM or 1 mM spermine (Wako Pure Chemical Industries, Ltd. (Japan); the same applies hereafter) and 20% KSR (Knockout Serum Replacement; Life Technologies; the same applies hereafter). 10 mL of cells was seeded on an EZ-Sphere low-adhesion culture dish (diameter: 10 cm, AGC; the same applies hereafter), and then suspension culture was performed. […]

Assay [2] has the same test system. Description: Induction of the expression of myocardium-committed-cell markers in ADMPC, concentration series (TaqMan PCR, GAPDH ratios). Type of assay: cell-based, human. How it is done:
as §1, §2, §3
ADMPC passaged 4 times by plate culture were detached and washed with TrypLE Select (Life Technologies; the same applies hereafter) and were suspended at a concentration of 1×10^5/mL in Knockout-DMEM (Life Technologies; […], Ltd. (Japan); the same applies hereafter) and 20% KSR (Knockout Serum Replacement; Life Technologies; the same applies hereafter). 10 mL of cells was seeded on an EZ-Sphere low-adhesion culture dish (diameter: 10 cm, AGC; the same applies hereafter), and then suspension culture was performed. After 24 hours, cells were collected, quantitative analysis of expression was performed by TaqMan PCR, and then GAPDH ratios were calculated.
Background: In qPCR the cycle at which signal appears reflects the starting amount.

For assay [3] the test system is unchanged. Conditions: FIG. 1. As to the method: as §1
Total RNA was isolated from the thus obtained cells using an RNeasy mini kit (Qiagen) according to protocols recommended by the manufacturer. […]

In the case of `C[S+](C)[O-]` [DMSO], in assay [1] (0.1% in medium, 48 hours), the “Cardiac troponin I/DMSO ratio” value is reported as 1, the “Cardiac α-actin/DMSO ratio” value was 1, the GATA4/DMSO ratio is listed as 1 and the Isl1/DMSO ratio was 1. In addition, in assay [1] (0.1% in medium, 48 hours), the MHC/DMSO ratio result was “Not detected”, the MLC/DMSO ratio was 1 and the Nkx2.5/DMSO ratio is given as 1.
On to `NCCCCNCCCN` [spermidine], for which the “expression of isl-1, nkx2.5 and GATA-4” value in assay [2] (spermidine 0, 5, 25, 50, 100, 200, 500 μM or 1 mM, suspension culture 24 hours) was “expression was confirmed”. Also, in assay [2] (spermidine series 0-1 mM, 24 hours), the “concentration at which all markers (isl-1, nkx2.5, GATA-4) exhibited the highest expression levels” value is 200 µM.
With `NCCCNCCCCNCCCN` [Spermine, spermine], in assay [1] (100 μM spermine 24, 72, 120 hours vs 0.1% DMSO 48 hours), the “expression levels of all markers, treatment with spermine compared with treatment with DMSO” value is recorded as “several to several hundred times greater”. Further, in assay [1] (100 μM, 1 day culture), the “Cardiac troponin I/DMSO ratio” value stood at 7.91, the “Cardiac α-actin/DMSO ratio” value was 192.84, the GATA4/DMSO ratio was 3.75 and the Isl1/DMSO ratio came to 6.79. In assay [1] (100 μM, 1 day culture), the MHC/DMSO ratio is 2.31 × 10^−6, the MLC/DMSO ratio stood at 0.67 and the Nkx2.5/DMSO ratio was determined as 3.58. In assay [1] (100 μM, 3 days culture), the “Cardiac troponin I/DMSO ratio” value is listed as 25.16, the “Cardiac α-actin/DMSO ratio” value stood at 169.75, the GATA4/DMSO ratio stood at 8.19 and the Isl1/DMSO ratio came out at 10.44. In assay [1] (100 μM, 3 days culture), the MHC/DMSO ratio is given as 3.74 × 10^−5, the MLC/DMSO ratio was 0.88 and the Nkx2.5/DMSO ratio was found to be 5.19. Also, in assay [1] (100 μM, 5 days culture), the “Cardiac troponin I/DMSO ratio” value worked out at 11.87, the “Cardiac α-actin/DMSO ratio” value was determined as 42.85, the GATA4/DMSO ratio was determined as 12.15 and the Isl1/DMSO ratio is 3.49. Further, in assay [1] (100 μM, 5 days culture), the MHC/DMSO ratio was 7.67 × 10^−6, the MLC/DMSO ratio came out at 0.45 and the Nkx2.5/DMSO ratio was 7.47. For the same molecule, the “effect of presence or absence of growth factors (EGF, bFGF) on the expression levels” value in assay [3] (100 μM spermine) is reported as “did not significantly affect”. Further, the “expression of isl-1, nkx2.5, GATA-4, α-CA, cardiac troponin I, MHC and MLC” value in assay [3] (100 μM, 24, 72 and 120 hours) was “Expression was confirmed”. Besides, the “expression of isl-1, nkx2.5, GATA-4, α-CA, cardiac troponin I and MHC” value in assay [2] (spermine 0, 5, 25, 50, 100, 200, 500 μM or 1 mM, suspension culture 24 hours) is “expression was confirmed”. The “concentration at which all markers exhibited the highest expression levels” value in assay [2] (spermine series 0-1 mM, 24 hours) stood at 100 µM.
